# Laboratory results from patent publication US20020160988A1 (priority 2001, published 2002).
# Where two headings read alike, the source gives them in different places.
# Columns and labels:
# [1] = biological target: T1, recombinant human acetylcholineesterase (rHuAChE) (Homo sapiens, UniProt P22303); assay: biochemical
# [2] = biological target: T1, recombinant human acetylcholineesterase (rHuAChE); conditions: for t½(ks): human, recombinant enzyme
# [3] = biological target: T2, fetal bovine serum-AChE (FBS-AChE) (Bos taurus, UniProt P23795); conditions: for t½(ks): bovine, serum
# T2 sequence (P23795 31-613): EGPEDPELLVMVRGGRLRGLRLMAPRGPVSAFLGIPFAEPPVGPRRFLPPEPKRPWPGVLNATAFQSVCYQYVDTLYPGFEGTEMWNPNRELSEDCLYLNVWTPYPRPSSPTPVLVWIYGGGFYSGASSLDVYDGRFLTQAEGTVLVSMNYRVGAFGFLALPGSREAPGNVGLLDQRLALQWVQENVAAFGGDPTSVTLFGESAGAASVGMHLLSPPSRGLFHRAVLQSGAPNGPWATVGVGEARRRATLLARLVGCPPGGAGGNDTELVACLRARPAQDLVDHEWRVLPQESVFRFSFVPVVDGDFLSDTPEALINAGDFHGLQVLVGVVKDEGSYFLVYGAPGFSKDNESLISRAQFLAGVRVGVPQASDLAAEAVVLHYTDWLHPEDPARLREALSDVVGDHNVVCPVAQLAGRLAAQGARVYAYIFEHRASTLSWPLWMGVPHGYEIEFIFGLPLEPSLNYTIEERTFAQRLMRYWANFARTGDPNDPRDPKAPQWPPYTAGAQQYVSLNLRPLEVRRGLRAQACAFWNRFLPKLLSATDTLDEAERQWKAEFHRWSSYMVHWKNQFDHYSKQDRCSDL
# [4] = system: whole blood ChE; design: species or system mice; conditions: mouse, in vivo, 0.13 mg/kg
# [5] = in vivo; conditions: mouse
# [6] = biological target: T2, fetal bovine serum-AChE (FBS-AChE); assay: biochemical
# [7] = biological target: T3, human plasma butyrylcholinesterase (HuBChE) (Homo sapiens, UniProt P06276); conditions: for t½(ks): human, plasma
# [8] = biological target: T3, human plasma butyrylcholinesterase (HuBChE); assay: biochemical
# [9] = physchem; conditions: pH 7.4
# [10] = system: mice; conditions: mouse, in vivo
# [11] = system: mice; conditions: mouse, in vivo; remark: listed apart in the source
# [12] = system: carrageenan-induced rat paw edema; conditions: in vivo
# [13] = system: CAR-induced brain edema; design: species or system rats; conditions: rat, in vivo
# [14] = biological target: COX II (sheep placenta) (Ovis aries, UniProt P79208); assay: biochemical; conditions: read-out: % Inhibition COX II
# [15] = biological target: COX I (bovine seminal vesicles) (Bos taurus, UniProt O62664); assay: biochemical; conditions: read-out: % Inhibition COX I
# COX I (bovine seminal vesicles), sequence (O62664 25-600): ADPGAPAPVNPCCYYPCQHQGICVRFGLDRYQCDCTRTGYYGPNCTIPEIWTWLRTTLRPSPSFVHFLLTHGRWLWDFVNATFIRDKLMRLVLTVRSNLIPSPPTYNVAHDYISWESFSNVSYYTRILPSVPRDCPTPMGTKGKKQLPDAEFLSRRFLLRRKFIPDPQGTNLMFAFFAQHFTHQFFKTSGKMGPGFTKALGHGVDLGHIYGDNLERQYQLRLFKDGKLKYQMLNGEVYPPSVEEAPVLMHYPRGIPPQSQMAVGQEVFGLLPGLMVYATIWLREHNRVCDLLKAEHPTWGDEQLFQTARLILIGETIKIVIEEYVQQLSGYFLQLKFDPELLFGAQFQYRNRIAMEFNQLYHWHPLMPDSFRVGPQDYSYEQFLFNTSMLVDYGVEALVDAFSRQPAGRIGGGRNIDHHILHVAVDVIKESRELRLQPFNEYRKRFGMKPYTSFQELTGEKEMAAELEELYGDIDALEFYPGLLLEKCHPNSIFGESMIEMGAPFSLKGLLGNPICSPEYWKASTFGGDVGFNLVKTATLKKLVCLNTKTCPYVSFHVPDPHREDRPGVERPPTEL
# T1 sequence (P22303 32-614): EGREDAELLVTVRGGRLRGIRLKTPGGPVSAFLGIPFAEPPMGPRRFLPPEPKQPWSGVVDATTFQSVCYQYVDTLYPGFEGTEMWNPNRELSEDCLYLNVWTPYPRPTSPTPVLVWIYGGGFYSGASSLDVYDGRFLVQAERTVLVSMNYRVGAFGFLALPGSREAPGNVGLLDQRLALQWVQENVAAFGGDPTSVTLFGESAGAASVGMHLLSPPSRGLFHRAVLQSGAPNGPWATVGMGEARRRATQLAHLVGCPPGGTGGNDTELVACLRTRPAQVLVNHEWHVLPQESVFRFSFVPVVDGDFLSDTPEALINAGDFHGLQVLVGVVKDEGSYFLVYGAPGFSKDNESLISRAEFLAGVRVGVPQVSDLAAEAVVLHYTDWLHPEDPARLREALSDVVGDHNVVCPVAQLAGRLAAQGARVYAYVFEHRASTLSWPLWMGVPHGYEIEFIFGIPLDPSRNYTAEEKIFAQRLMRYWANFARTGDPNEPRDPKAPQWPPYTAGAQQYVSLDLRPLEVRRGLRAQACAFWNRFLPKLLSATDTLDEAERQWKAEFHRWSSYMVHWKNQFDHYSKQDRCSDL
# T3 sequence (P06276 29-602): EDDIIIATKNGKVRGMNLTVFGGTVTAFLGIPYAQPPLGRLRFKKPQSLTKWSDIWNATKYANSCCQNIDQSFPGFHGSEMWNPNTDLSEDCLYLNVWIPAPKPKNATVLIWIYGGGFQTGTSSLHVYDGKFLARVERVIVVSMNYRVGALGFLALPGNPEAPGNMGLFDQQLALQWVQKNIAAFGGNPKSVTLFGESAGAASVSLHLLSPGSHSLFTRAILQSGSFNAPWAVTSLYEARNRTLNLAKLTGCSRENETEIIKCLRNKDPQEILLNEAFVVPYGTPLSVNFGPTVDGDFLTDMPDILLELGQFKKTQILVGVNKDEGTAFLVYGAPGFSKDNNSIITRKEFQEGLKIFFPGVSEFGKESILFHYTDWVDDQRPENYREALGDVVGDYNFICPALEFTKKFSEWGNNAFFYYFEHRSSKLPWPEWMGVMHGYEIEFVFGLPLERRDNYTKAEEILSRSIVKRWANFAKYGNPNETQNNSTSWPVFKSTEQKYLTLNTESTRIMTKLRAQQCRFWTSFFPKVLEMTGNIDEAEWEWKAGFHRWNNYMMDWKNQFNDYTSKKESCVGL
# COX II (sheep placenta), sequence (P79208 17-603): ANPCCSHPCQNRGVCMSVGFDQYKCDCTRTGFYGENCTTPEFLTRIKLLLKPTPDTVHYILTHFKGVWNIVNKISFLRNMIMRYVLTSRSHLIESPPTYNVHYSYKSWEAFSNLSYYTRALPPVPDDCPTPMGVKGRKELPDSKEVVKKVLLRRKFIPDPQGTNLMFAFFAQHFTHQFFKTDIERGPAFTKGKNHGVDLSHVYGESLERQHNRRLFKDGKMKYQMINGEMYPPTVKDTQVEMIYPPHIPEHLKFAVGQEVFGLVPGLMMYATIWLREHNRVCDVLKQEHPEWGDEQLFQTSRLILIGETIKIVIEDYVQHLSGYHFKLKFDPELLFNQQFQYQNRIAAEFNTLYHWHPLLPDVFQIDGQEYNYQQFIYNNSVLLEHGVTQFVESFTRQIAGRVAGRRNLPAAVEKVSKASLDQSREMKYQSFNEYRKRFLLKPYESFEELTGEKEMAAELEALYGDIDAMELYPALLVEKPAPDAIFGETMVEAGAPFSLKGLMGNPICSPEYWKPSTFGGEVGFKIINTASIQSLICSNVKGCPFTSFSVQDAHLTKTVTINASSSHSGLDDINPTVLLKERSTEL
compound,measurement,setting,value
"COC(=O)c1cccnc1 [MN, methyl nicotinate]",IC50,[1],> 100 µM
same,mode of AChE inhibition,[2],reversible inhibition of AChE
"CN(C)C(=O)Oc1ccc[n+](C)c1 [PYR, pyridostigmine]",K′,[3],0.31 min⁻¹
same,ki (bimolecular rate constant),[3],2.5 × 10^5 M^−1m^−1
same,ks × 10^3,[3],10 minutes^−1
same,t½(ks),[3],1.15 h
same,ChE inhibition,[4],less than 20%
same,duration time of ChE inhibition,[4],1 to 1.5 h
same,LD50,[5]; im,2.1 mg/kg
same,LD50,[5]; ip,5.1 mg/kg
same,Ki,[6],1.2 µM
same,K′,[2],0.40 min⁻¹
same,ki (bimolecular rate constant),[2],2.7 × 10^5 M^−1m^−1
same,ks × 10^3,[2],9.2 minutes^−1
same,t½(ks),[2],1.25 h
same,K′,[7],0.08 min⁻¹
same,ki (bimolecular rate constant),[7],7.3 × 10^4 M^−1m^−1
same,ks × 10^3,[7],7.1 minutes^−1
same,t½(ks),[7],1.62 h
CC(C)Cc1ccc(C(C)C(=O)OCCCCCCCCN2CCC=C(OC(=O)N(C)C)C2)cc1 (stereo not shown) [IBU-4H-PO],Ki,[8],1.6 µM
same,K′,[3],1.9 min⁻¹
same,ki (bimolecular rate constant),[3],2.8 × 10^4 M^−1m^−1
same,ks × 10^3,[3],20 minutes^−1
same,t½(ks),[3],0.575 h
same,logD,[9],2
same,Ki,[1],12 µM
same,LD50,[5]; ip,54.2 mg/kg
same,Ki,[6],66 µM
same,K′,[2],0.23 min⁻¹
same,ki (bimolecular rate constant),[2],1.9 × 10^4 M^−1m^−1
same,ks × 10^3,[2],6.9 minutes^−1
same,t½(ks),[2],1.67 h
same,K′,[7],0.19 min⁻¹
same,ki (bimolecular rate constant),[7],1.2 × 10^5 M^−1m^−1
same,ks × 10^3,[7],0.9 minutes^−1
same,t½(ks),[7],13.2 h
CCN(C)C(=O)Oc1cccc([C@H](C)N(C)C)c1 [EXELON],Therapeutic Index (TI = LD50/ED50),[10],12.5
CNC1(C)C2CCC(C2)C1(C)C (stereo not shown) [mecamylamine],time of maximal IBU-PO-induced hypothermia after pretreatment,[11],60 min
CN1[C@@H]2CC[C@H]1C[C@@H](OC(=O)C(CO)c1ccccc1)C2 (stereo partly shown) [atropine],effect of pretreatment on IBU-PO-induced hypothermia,[11],partially reverses the hypothermia
"CC(C)Cc1ccc(C(C)C(=O)O)cc1 (stereo not shown) [IBU, ibuprofen]",LD50,[5]; im,> 100 mg/kg
same,edema level (% EDEMA) after treatment,[12],about 30%
same,brain % water content,[13],83%
"COc1ccc2cc([C@H](C)C(=O)O)ccc2c1 [NAPRO, naproxen]",inhibition at 1 µM,[14],85%
same,inhibition at 1 µM,[15],37%
"CC(=O)Oc1ccccc1C(=O)O [ASPIRIN, aspirin]",LD50,[5]; ip,> 100 mg/kg
CNC(=O)Oc1ccc2c(c1)[C@]1(C)CCN(C)[C@@H]1N2C [physostigmine],Therapeutic Index (TI = LD50/ED50),[10],3.4
Nc1c2c(nc3ccccc13)CCCC2 [TACRINE],Therapeutic Index (TI = LD50/ED50),[10],3.5
3-Dimethylcarbamoyl-1-{7-[2-(4-isobutyl-phenyl)-propionylamino]-heptyl}-pyridinium bromide [IBU-Am-PH],Ki,[2],0.047 µM
same,K′,[2],0.13 min⁻¹
same,ki (bimolecular rate constant),[2],2.8 × 10^6 M^−1m^−1
same,ks × 10^3,[2],27 minutes^−1
"COC(=O)C1=CCCN(C)C1 [Arecoline, arecoline]",IC50,[1],> 100 µM
same,mode of AChE inhibition,[2],reversible inhibition of AChE
"COc1ccc2c(c1)c(CC(=O)O)c(C)n2C(=O)c1ccc(Cl)cc1 [INDO, indomethacin]",LD50,[5]; ip,12.4 mg/kg
same,edema level (% EDEMA) after treatment,[12],about 30%
